Publication PMC12935787, “Clinical pharmacokinetics and pharmacometabolomics of Andrographis paniculata capsules: Bridging drug disposition and metabolic response to precision medicine” (Naunyn-Schmiedeberg's Archives of Pharmacology, 2025)
Where two headings read alike, the source gives them in different places.

Assay: Clinical pharmacokinetics, plasma LC-MS/MS after single oral dose of AP capsules
Format: in vivo, human (healthy volunteers)
Details: human, plasma; for concentration at 0 h / concentration at 0.5 h / concentration at 1 h / concentration at 1.5 h / concentration at 2 h / concentration at 2.5 h / concentration at 3 h / concentration at 3.5 h / concentration at 4 h / concentration at 5 h / concentration at 6 h / concentration at 8 h / concentration at 10 h / concentration at 12 h / concentration at 24 h: oral, 2000 mg, 2000 mg AP capsules; for concentration at 0.5 h: 0.50 h; for concentration at 1.5 h: 1.50 h; for concentration at 2.5 h: 2.50 h; for concentration at 3.5 h: 3.50 h
Experimental: The protocol was published (Tee et al. [2022]).
Seven calibrators ranging from 1, 2, 5,10, 20, 50, and 100 ng mL^−1 were prepared. Frozen plasma was thawed, vortexed-mixes, and processed via protein precipitation: 50 µL plasma plus 100 µL 0.01% ammonia in methanol were vortexed (20 s), centrifuged (14800 rpm, 5 min) and […] supernatant was transferred to 2 mL vials with inserts. LC–MS/MS injection volume: 10 µL. The separation used a Phenomenex Gemini-NX C18 column (150 × 2.1 mm, 5 μm) with 0.01% ammonia (A) and acetonitrile/methanol (1:1, B) as mobile phases (0.30 mL min^-1). The gradient program: 40% B (0 min), linear increase to 95% B (3 min), hold to 5 min, sharp decrease to 10% B (5.01 min), hold to 7 min, return to 40% B (7.01 min), and re-equilibration to 10 min. Mass detection employed an LCMS-8060NX triple quadrupole with heated ESI in negative mode, monitoring specific MRM transitions: andrographolide (349.3 → 331.2/287.1), 14-deoxyandrographolide (331.2 → 108.0/301.1), and neoandrographolide (479.1 → 317.4/161.1).
Pharmacokinetic parameters were determined from plasma samples (5 subjects, 15 time points) analyzed via LC–MS/MS (Shimadzu 8060NX). […] Specific MRM transitions for andrographolide, 14-deoxyandrographolide, and neoandrographolide in plasma samples of subjects are illustrated in Figure S3. […] The dose-dependent concentration–time curves, pharmacokinetics profiles (Fig. 2a, b and c) and comprehensive individual PK data (Table S4) provide a foundation for developing personalized AP dosing regimens, supporting its precision medicine potential.

[1] = S1, read-out: Plasma concentration
[2] = S2, read-out: Plasma concentration
[3] = S3, read-out: Plasma concentration
[4] = S4, read-out: Plasma concentration
[5] = S5, read-out: Plasma concentration
[6] = mean n=5, read-out: Mean concentration
[7] = 2000 mg AP capsules oral, fasting, n=5

A concentration at 0 h [1] of 0 ng/mL, a concentration at 0.5 h [1] of 13.2 ng/mL and a concentration at 1 h [1] of 21.3 ng/mL were found for `C=C1CC[C@@H]2[C@](C)(CO[C@@H]3O[C@H](CO)[C@@H](O)[C@H](O)[C@H]3O)CCC[C@@]2(C)[C@@H]1CCC1=CCOC1=O` [neoandrographolide] in this work. The concentration at 1.5 h [1] was 41.4 ng/mL, the concentration at 2 h [1] was 32 ng/mL and the concentration at 2.5 h [1] was 19.7 ng/mL. For the same compound, the concentration at 3 h [1] was 24.1 ng/mL, the concentration at 3.5 h [1] was 22.2 ng/mL and the concentration at 4 h [1] was 6.67 ng/mL. For the same compound, the concentration at 5 h [1] was 11.3 ng/mL, the concentration at 6 h [1] was 4.57 ng/mL and the concentration at 8 h [1] was 0.97 ng/mL. The concentration at 10 h [1] was 0 ng/mL, the concentration at 12 h [1] was 0 ng/mL and the concentration at 24 h [1] was 0 ng/mL. For the same compound, the concentration at 0 h [2] was 0 ng/mL, the concentration at 0.5 h [2] was 0.77 ng/mL and the concentration at 1 h [2] was 45.3 ng/mL. It also gave a concentration at 1.5 h [2] of 43.7 ng/mL, a concentration at 2 h [2] of 28 ng/mL and a concentration at 2.5 h [2] of 21.7 ng/mL. It also gave a concentration at 3 h [2] of 36.5 ng/mL, a concentration at 3.5 h [2] of 15.1 ng/mL and a concentration at 4 h [2] of 12.8 ng/mL. The concentration at 5 h [2] was 16.2 ng/mL, the concentration at 6 h [2] was 5.29 ng/mL and the concentration at 8 h [2] was 1.69 ng/mL. The concentration at 10 h [2] was 0 ng/mL, the concentration at 12 h [2] was 0 ng/mL and the concentration at 24 h [2] was 0 ng/mL. It also gave a concentration at 0 h [3] of 0 ng/mL, a concentration at 0.5 h [3] of 82.9 ng/mL and a concentration at 1 h [3] of 75.6 ng/mL. For the same compound, the concentration at 1.5 h [3] was 50 ng/mL, the concentration at 2 h [3] was 24.3 ng/mL and the concentration at 2.5 h [3] was 13.1 ng/mL. The concentration at 3 h [3] was 7.05 ng/mL, the concentration at 3.5 h [3] was 0 ng/mL and the concentration at 4 h [3] was 0 ng/mL. For the same compound, the concentration at 5 h [3] was 0 ng/mL, the concentration at 6 h [3] was 0 ng/mL and the concentration at 8 h [3] was 0 ng/mL. For the same compound, the concentration at 10 h [3] was 0 ng/mL, the concentration at 12 h [3] was 0 ng/mL and the concentration at 24 h [3] was 0 ng/mL. For the same compound, the concentration at 0 h [4] was 0 ng/mL, the concentration at 0.5 h [4] was 1.9 ng/mL and the concentration at 1 h [4] was 41.1 ng/mL. It also gave a concentration at 1.5 h [4] of 109 ng/mL, a concentration at 2 h [4] of 78.2 ng/mL and a concentration at 2.5 h [4] of 53.9 ng/mL. For the same compound, the concentration at 3 h [4] was 43.9 ng/mL, the concentration at 3.5 h [4] was 33.5 ng/mL and the concentration at 4 h [4] was 21.9 ng/mL. For the same compound, the concentration at 5 h [4] was 20.6 ng/mL, the concentration at 6 h [4] was 11.9 ng/mL and the concentration at 8 h [4] was 2.08 ng/mL. The concentration at 10 h [4] was 0 ng/mL, the concentration at 12 h [4] was 0 ng/mL and the concentration at 24 h [4] was 0 ng/mL. For the same compound, the concentration at 0 h [5] was 0 ng/mL, the concentration at 0.5 h [5] was 15.4 ng/mL and the concentration at 1 h [5] was 27.1 ng/mL. For the same compound, the concentration at 1.5 h [5] was 48 ng/mL, the concentration at 2 h [5] was 86.8 ng/mL and the concentration at 2.5 h [5] was 65.8 ng/mL. The concentration at 3 h [5] was 59.5 ng/mL, the concentration at 3.5 h [5] was 31.1 ng/mL and the concentration at 4 h [5] was 18.5 ng/mL. The concentration at 5 h [5] was 9.61 ng/mL, the concentration at 6 h [5] was 4.65 ng/mL and the concentration at 8 h [5] was 1.35 ng/mL. For the same compound, the concentration at 10 h [5] was 0 ng/mL, the concentration at 12 h [5] was 0 ng/mL and the concentration at 24 h [5] was 0 ng/mL. The concentration at 0 h [6] was 0 ng/mL, the concentration at 0.5 h [6] was 22.8 ng/mL and the concentration at 1 h [6] was 42.1 ng/mL. The concentration at 1.5 h [6] was 58.5 ng/mL, the concentration at 2 h [6] was 49.9 ng/mL and the concentration at 2.5 h [6] was 34.9 ng/mL. It also gave a concentration at 3 h [6] of 34.2 ng/mL, a concentration at 3.5 h [6] of 20.4 ng/mL and a concentration at 4 h [6] of 12 ng/mL. It also gave a concentration at 5 h [6] of 11.5 ng/mL, a concentration at 6 h [6] of 5.28 ng/mL and a concentration at 8 h [6] of 1.22 ng/mL. The concentration at 10 h [6] was 0 ng/mL, the concentration at 12 h [6] was 0 ng/mL and the concentration at 24 h [6] was 0 ng/mL. For the same compound, the AUC(0-inf) [7] was 163 ng·h/mL, the AUC(0-t) [7] was 161 ng·h/mL and the Cmax [7] was 58.5 ng/mL. The half-life [7] was 55.8 min.
